Laboratory results published in patent publication US8785459B2, “Quinazoline compounds as kinase inhibitors” (Development Center for Biotechnology, priority 2011, dated 2014).

Columns and labels:
Format in all cases: biochemical
[1] = biological target: C-Raf (Homo sapiens (Human), UniProt P04049); assay: Raf kinase assay (C-Raf), [33P] incorporation into MEK1(K97R)
Method in brief: (§1)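 Recombinant C-Raf (2 ng) or B-Raf or B-Raf V600E (5 ng each) phosphorylated 500 ng MEK1(K97R) with 8 μM ATP plus [33P]ATP, pH 7.5, 30 min at 30 °C. Filter-captured 33P counted. IC50 from 3-fold compound dilutions run in duplicate.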

[2] = biological target: FGFR1 kinase (Homo sapiens (Human), UniProt P11362); assay: FGFR1 kinase assay
Experimental: Inhibition of FGFR1 kinase activity by compounds disclosed herein was quantified by measuring the amount of [^33P] incorporated into the substrate in the presence of a test compound. Briefly, a reaction mixture of 25 μL final volume containing 1 ng of FGFR1 kinase (FGFR1 kinase domain alone, Millipore), 5 μg of the substrate [poly(Glu-Tyr), Sigma], kinase reaction buffer (14 mM MOPS pH 7.0, 0.2 mM EDTA, 0.5% glycerol, 0.001% Brij-35, 0.01% β-mercaptoethanol, 0.1 mg/ml BSA, 100 μM ATP, 0.1 μCi per well [^33P]-γ-ATP (2,500-3,000 Ci/mmol)), and a test compound (100 nM, diluted with 4% DMSO) or DMSO (as the control) was incubated at 30° C. for 60 minutes. The reaction was stopped by adding 5 μL of 3% phosphoric acid solution. The resultant reaction solution was then harvested onto a filter plate (UniFilter-96 GF/B, PerkinElmer), washed 20 times for 5 min with d.d. H2O, and followed by the addition of 30 μL of MicroScint™-20 Cocktail (PerkinElmer). The radioactivity retained on the filter membrane was measured by TopCount™ scintillation detector (PerkinElmer). The results were analyzed by using linear regression software (GraphPad Prism™ 4; GraphPad Software Inc.). IC50 value is defined as the concentration of the test compound which achieves a half-maximal inhibition of the kinase activity.

[3] = biological target: VEGFR2 kinase (Homo sapiens (Human), UniProt P35968); assay: VEGFR2 kinase assay
Experimental: Inhibition of VEGFR2 kinase activity by compounds disclosed herein was quantified by measuring the amount of [^33P] incorporated into the substrate in the presence of a test compound. […] The reaction was then stopped by adding 5 μL of 3% phosphoric acid solution. The resultant solution was transferred to and harvested by a filter plate (UniFilter-96 GF/B, PerkinElmer). The filter plate was then washed 20 times with d.d. H2O for 5 min followed by the addition of 30 μL of MicroScint™-20 Cocktail (PerkinElmer). After the plate was sealed, the retained radioactivity on the filter was counted using a TopCount™ scintillation detector (PerkinElmer). […]

[4] = biological target: FLT3 kinase (Homo sapiens (Human), UniProt P36888); assay: FLT3 kinase assay
Experimental: Inhibition of FLT3 kinase activity by compounds disclosed herein was quantified by measuring the amount of [^33P] incorporated into the substrate in the presence of a test compound. Briefly, a reaction mixture of 25 μL final volume containing 5 ng of Flt3 kinase (obtained by purifying recombinant N-terminal 6×His-tagged Flt3 kinase domain construct expressed from baculovirus), 5 μg of the substrate (Poly(Glu-Tyr, 4:1, Sigma)), kinase reaction buffer (20 mM MOPS pH 7.0, 1 mM EDTA, 5% glycerol, 0.01% Brij-35, 0.1% β-mercaptoethanol, 1 mg/mL BSA, 100 μM ATP, 0.1 μCi per well [^33P]-γ-ATP (2,500-3,000 Ci/mmol)), and a test compound (100 nM, diluted with 4% DMSO) or DMSO (as the control) was incubated at 30° C. for 30 minutes. The reaction was stopped by adding 5 μL of 3% phosphoric acid solution. The resultant reaction solution was then harvested onto a filter plate (UniFilter-96 GF/B, PerkinElmer), washed 20 times for 5 min with d.d. H2O, and followed by the addition of 30 μL of MicroScint™-20 Cocktail (PerkinElmer). The plate was then sealed and counted using a TopCount™ scintillation detector (PerkinElmer). IC50 value is defined as the concentration of the test compound which achieves a half-maximal inhibition of the kinase activity.

[5] = biological target: EGFR kinase (Homo sapiens (Human), UniProt P00533); assay: EGFR kinase assay
Experimental: Inhibition of EGFR kinase activity by compounds disclosed herein is quantified by measuring the amount of [^33P] incorporated into the substrate in the presence of a test compound. Briefly, a reaction mixture of 25 μL final volume containing 25 ng of EGFR kinase (EGFR kinase domain alone, Millipore), 3 μg of the substrate [poly(Glu-Tyr), Sigma], kinase reaction buffer (10 mM MOPS pH 7.0, 0.3 mM EDTA, 0.5% glycerol, 0.001% Brij-35, 10 mM MnCl2, 0.1 mg/ml BSA, 100 μM ATP, 0.1 μCi per well [^33P]-γ-ATP (2,500-3,000 Ci/mmol)), and a test compound (100 nM, diluted with 4% DMSO) or DMSO (as the control) was incubated at 30° C. for 30 minutes. The reaction was stopped by adding 5 μL of 3% phosphoric acid solution. The resultant reaction solution was then harvested onto a filter plate (UniFilter-96 GF/B, PerkinElmer), washed 20 times for 5 min with d.d. H2O, and followed by the addition of 30 μL of MicroScint™-20 Cocktail (PerkinElmer). The radioactivity retained on the filter membrane was measured by TopCount™ scintillation detector (PerkinElmer). The results were analyzed by using linear regression software (GraphPad Prism™ 4; GraphPad Software Inc.). IC50 value is defined as the concentration of the test compound which achieves a half-maximal inhibition of the kinase activity.

[6] = biological target: B-Raf (Homo sapiens (Human), UniProt P15056); assay: Raf kinase assay (B-Raf), [33P] incorporation into MEK1(K97R)
Method in brief: as §1

[7] = biological target: B-Raf (V600E) (Homo sapiens (Human), UniProt P15056, V600E); assay: Raf kinase assay (B-Raf (V600E)), [33P] incorporation into MEK1(K97R)
Method in brief: as §1

Sequence of B-Raf (P15056 whole entry): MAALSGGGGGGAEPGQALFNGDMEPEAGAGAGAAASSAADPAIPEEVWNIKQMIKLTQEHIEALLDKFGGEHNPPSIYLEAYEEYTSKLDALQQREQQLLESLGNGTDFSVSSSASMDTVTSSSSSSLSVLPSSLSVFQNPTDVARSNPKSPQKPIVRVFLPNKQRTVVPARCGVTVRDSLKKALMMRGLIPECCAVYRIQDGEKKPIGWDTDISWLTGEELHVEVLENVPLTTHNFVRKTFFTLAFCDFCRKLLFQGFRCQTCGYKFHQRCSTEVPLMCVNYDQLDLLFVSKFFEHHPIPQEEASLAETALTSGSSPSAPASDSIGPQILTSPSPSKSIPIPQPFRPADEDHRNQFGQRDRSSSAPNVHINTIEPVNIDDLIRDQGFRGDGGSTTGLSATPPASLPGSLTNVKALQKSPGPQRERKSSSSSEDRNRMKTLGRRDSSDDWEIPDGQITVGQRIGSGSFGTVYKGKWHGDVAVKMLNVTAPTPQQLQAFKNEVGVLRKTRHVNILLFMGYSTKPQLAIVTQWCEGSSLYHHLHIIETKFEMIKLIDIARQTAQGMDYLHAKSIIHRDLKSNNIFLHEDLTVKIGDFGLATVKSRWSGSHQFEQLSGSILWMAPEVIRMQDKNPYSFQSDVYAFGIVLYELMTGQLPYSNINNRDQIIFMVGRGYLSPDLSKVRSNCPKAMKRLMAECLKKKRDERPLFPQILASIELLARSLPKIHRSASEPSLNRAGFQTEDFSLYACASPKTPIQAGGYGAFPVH
Sequence of C-Raf (P04049 whole entry): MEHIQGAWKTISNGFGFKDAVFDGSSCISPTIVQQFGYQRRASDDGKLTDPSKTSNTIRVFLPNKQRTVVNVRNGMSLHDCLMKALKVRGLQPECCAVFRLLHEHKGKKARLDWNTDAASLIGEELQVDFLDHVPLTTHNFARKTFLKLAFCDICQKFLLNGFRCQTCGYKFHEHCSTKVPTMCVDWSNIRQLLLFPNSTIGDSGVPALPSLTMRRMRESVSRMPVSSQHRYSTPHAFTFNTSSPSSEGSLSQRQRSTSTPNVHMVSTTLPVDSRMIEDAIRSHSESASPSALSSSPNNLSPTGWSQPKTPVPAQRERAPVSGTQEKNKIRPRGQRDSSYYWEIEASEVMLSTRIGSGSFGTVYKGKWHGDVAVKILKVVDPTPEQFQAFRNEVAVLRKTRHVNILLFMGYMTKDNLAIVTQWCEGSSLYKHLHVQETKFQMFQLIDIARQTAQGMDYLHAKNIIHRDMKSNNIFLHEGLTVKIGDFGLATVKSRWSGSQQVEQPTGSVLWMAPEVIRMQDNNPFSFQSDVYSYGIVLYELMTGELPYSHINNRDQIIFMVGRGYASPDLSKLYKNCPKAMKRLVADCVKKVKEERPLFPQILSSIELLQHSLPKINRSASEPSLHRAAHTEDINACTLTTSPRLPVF
Sequence of B-Raf (V600E) (P15056 whole entry V600E): as the sequence (P15056 whole entry) above, with V600E counted along it
Sequence of FGFR1 kinase (P11362 478-767): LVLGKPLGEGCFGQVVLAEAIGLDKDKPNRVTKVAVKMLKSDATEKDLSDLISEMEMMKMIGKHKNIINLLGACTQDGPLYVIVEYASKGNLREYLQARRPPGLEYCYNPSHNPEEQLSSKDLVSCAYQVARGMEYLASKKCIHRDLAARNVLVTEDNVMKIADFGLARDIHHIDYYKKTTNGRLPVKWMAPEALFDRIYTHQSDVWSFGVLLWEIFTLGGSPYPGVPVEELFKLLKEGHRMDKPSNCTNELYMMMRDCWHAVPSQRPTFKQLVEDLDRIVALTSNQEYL
Sequence of EGFR kinase (P00533 712-979): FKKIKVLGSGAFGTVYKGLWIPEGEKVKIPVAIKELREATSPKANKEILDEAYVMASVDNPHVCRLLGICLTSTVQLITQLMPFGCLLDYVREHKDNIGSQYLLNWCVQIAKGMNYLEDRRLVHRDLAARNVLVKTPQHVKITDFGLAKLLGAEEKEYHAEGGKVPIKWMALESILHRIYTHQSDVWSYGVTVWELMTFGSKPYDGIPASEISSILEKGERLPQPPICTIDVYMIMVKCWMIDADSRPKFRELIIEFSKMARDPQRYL
Sequence of VEGFR2 kinase (P35968 834-1162): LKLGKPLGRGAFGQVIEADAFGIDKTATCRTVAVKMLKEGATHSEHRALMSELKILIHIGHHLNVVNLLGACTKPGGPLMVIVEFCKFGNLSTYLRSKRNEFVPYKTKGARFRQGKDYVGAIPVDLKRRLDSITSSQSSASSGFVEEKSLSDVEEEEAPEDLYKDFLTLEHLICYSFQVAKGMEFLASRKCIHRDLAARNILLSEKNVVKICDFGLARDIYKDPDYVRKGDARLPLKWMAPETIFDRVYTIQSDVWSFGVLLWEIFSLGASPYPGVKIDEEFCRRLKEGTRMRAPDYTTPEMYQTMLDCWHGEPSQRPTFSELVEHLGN
Sequence of FLT3 kinase (P36888 610-943): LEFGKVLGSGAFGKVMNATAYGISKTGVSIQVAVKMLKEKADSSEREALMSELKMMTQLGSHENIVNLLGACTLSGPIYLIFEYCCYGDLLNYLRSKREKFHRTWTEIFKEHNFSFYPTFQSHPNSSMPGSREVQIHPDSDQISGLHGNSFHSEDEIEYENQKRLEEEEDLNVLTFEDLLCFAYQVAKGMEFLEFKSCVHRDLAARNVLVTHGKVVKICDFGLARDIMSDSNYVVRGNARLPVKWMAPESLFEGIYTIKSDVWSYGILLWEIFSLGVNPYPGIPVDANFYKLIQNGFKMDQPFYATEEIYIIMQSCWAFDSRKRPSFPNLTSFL

IC50 [1]: 503 nM | IC50 [2]: 1440 nM | IC50 [3]: 5400 nM | IC50 [4]: 146 nM | IC50 [5]: 56.4 nM | IC50 [6]: 557 nM | inhibition at 1 µM ([6]; 1.0 μM compound, read-out: B-Raf inhibition at 1.0 μM): 55.8% | IC50 [7]: 522 nM
Compound: COc1cc(-c2ccc3ncnc(Nc4ccc(O)cc4)c3c2)ccc1O [Compound 19, 4-(4-(4-hydroxyphenylamino)quinazolin-6-yl)-2-methoxyphenol]
